Assays:
[1] = system: subcutaneous arteries; test: Myograph: endothelin 1 (ET-1)-induced contraction of subcutaneous artery segments after pre-treatment and placental vesicles; assay type: cell-based, human; conditions: for contraction to ET-1 / AUC / AUC/AUC (PE) % / % contractile change: Example 5, 10 μg/ml pre-incubation then PE vesicles; for AUC / AUC/AUC (PE) % / % contractile change: ET-1, pooled from five patients; for % contractile change: vs PE; for reduction of contraction induced with ET-1: vs PE vesicles only; for Emax [%] ET-1: relative to 60 mM potassium contraction; for logEC50 ET-1: EC50 of agonist ET-1; for effect on ET-1 mediated contraction with control P vesicles: vs vesicles only
From the text: (§1) In a myograph model, arteries from subcutaneous tissue of women undergoing Caesarian section were used. The contractile effect of arteries comprising vesicles derived from placentas from pre-eclamptic women was compared with the contractile effect of arteries comprising vesicles derived from placentas from non-preeclamptic women. […] The Low Molecular Weight Heparin (LMWH) tinzaparin (Innohep®, Leo Pharma Denmark) was used as a comparator.
(§2) Subcutaneous arteries were removed from the subcutaneous fat of the abdomen during Caesarean section and immediately put in cold DMEM-medium. Arteries were dissected in cold Na-Krebs buffer at a pH of 7.3-7.4 and cut into ring segments with a length of 1-2 mm as previously shown. The sections were mounted on two 40 μm-diameter wires and connected to a device sensitive to vascular tension. The stretching force property of the arteries were recorded with Mulvany-Halpern myographs. The mounted arterial segments were immersed into temperature-controlled (+37° C.) tissue baths containing bicarbonate-based buffer solution gassed with carbogen to obtain a pH of 7.3-7.4. Each segment was stretched to 90% of the normal internal circumference, which is the size each segment would have in a transmural pressure of 100 mm Hg. The contractile capacity of each artery segment was checked by exposure to 60 mM KCl buffer solution twice or three times to study viability. After each the bath was washed and the tone returned to baseline. When stable, different molecules or receptor agonists are added to the baths in concentration-dependent manner to observe the vasomotor responses of the vessels.
(§3) The artery segments were studied by exposure to angiotensin II or endothelin 1 in cumulative concentrations of the agonists. […] In some experiments, 30 minutes after adding vesicles to the tissue baths concentration-contraction curves were obtained by cumulative application of angiotensin II (angiotensin 1 and 2 receptor agonist, concentration range 10^−12 to 10^−6 M). After washing and the tension returning to base line, agonists are added. After washing and the tension returning to base line endothelin 1 was added (endothelin A and B receptor agonist, concentration range 10^−11 to 10^−7 M).
(§4) After 30 minutes, non-preeclampsia vesicles as control (P) or pre-eclampsia (PE) vesicles were added at a concentration of 200 μg (protein concentration 40 μg/mL).
(§5) 30 minutes after adding vesicles to the tissue baths, concentration-contraction curves were obtained by cumulative application of angiotensin II (A9525 Sigma-Aldrich Angiotensin II human, powder CAS Number 4474-91-3 dissolved in sodium chloride to a concentration of 10^−3 M) and used in the concentration range 10^−12 to 10^−6 M. After wash-out and the tension had returned to base line, ET-1 (ALX-155-001, Enzo Life Sciences) was added and recorded (endothelin A and B receptor agonist, concentration range 10^−11 to 10^−7 M).

[2] = system: subcutaneous arteries; test: Myograph: angiotensin II-induced contraction of subcutaneous artery segments after pre-treatment and placental vesicles; conditions: for contractile effect of AngII in the presence of PE: 10 μg/ml pre-incubation; for AUC / AUC/AUC (PE) % / % contractile change: AngII; for % contractile change: vs PE; for Emax [%] AngII: relative to 60 mM potassium contraction; for logEC50 AngII: EC50 of agonist AngII; for effect on Ang II mediated contraction with control P vesicles: vs vesicles only;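 for all read-outs here: wire myograph tension of human abdominal subcutaneous artery rings from Caesarean deliveries at 37 °C, 30 min pre-treatment, vesicles 30 min, then cumulative angiotensin II 10^−12 to 10^−6 M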
From the text: as §1, §2, §3, §4, §5

[3] = system: subcutaneous arteries; test: Myograph: endothelial function (relaxation to substance P after potassium pre-contraction); assay type: cell-based, human
Experimental: In some experiments the endothelial function was tested by pre-contraction the vessels with 30 mM potassium buffer, giving a stable tone and endothelium function evaluated by exposure to substance P (10^−6 or 10^−5 M).

[4] = patient 14, 10 μg/ml before PE-vesicles
[5] = patient 14, 10 μg/ml pre-treatment then PE vesicles
[6] = patient 14, drug only, no vesicles
[7] = patient 14, pre-treatment then P vesicles
[8] = patient 14, pre-treatment then PE vesicles
[9] = patient 14, control (P) vesicles
[10] = Example 3, 10 μg/ml pre-incubation then PE vesicles, pooled from four patients
[11] = Example 4, 100 μg/ml pre-incubation then PE vesicles
[12] = Example 4, 100 μg/ml pre-incubation then PE vesicles, pooled from five patients
[13] = patient 14, 10 μg/ml before PE-vesicles, vs PE vesicles only
[14] = patient 13, 10 μg/ml pre-treatment then PE vesicles
[15] = patient 13, drug only, no vesicles
[16] = patient 13, pre-treatment then P vesicles
[17] = patient 13, control (P) vesicles

## tafoxiparin
[1]
  contraction to ET-1: significantly lower contraction
  AUC: 193.1
  AUC/AUC (PE) %: 61.8%
  % contractile change: −38%
[1]; [4]
  reduction of contraction induced with ET-1: 56%
[1]; [5]
  Emax [%] ET-1: 77%
[1]; [6]
  logEC50 ET-1: 9.9
  Emax [%] ET-1: 180%
[1]; [7]
  logEC50 ET-1: 7.7
  Emax [%] ET-1: 105%
[1]; [8]
  logEC50 ET-1: 6.9
[1]; [9]
  effect on ET-1 mediated contraction with control P vesicles: little or no effect
[2]; Example 3
  contractile effect of AngII in the presence of PE: affect the contractile effect of AngII
[2]; [10]
  AUC: 160.5
  AUC/AUC (PE) %: 68.5%
  % contractile change: −31.5%
[2]; [11]
  AngII induced contraction: significantly decreased
[2]; [12]
  AUC: 306.5
  AUC/AUC (PE) %: 70.8%
  % contractile change: −29%
[2]; [13]
  reduction of contraction induced with angiotensin II: 79%
[2]; [5]
  Emax [%] AngII: 27%
[2]; [6]
  logEC50 AngII: 10.2
  Emax [%] AngII: 101%
[2]; [7]
  logEC50 AngII: 9.8
  Emax [%] AngII: 73%
[2]; [8]
  logEC50 AngII: 9.4
[2]; [9]
  effect on Ang II mediated contraction with control P vesicles: little or no effect
[3]; [6]
  Endothelial function [%]: 85%
[3]; [7]
  Endothelial function [%]: 22%
[3]; [8]
  Endothelial function [%]: 67%

## tinzaparin
[1]
  contraction to ET-1: significantly lower contraction
  AUC: 259.5
  AUC/AUC (PE) %: 83.1%
  % contractile change: −17%
[1]; patient 13, 10 μg/ml before PE-vesicles
  contraction induced with ET-1 (the Emax) compared with PE vesicles only: the same
[1]; patient 13, 10 μg/ml before PE-vesicles, extrapolated
  reduction of log EC50 (ET-1): 35%
[1]; [14]
  Emax [%] ET-1: 143%
[1]; [15]
  logEC50 ET-1: 8.5
  Emax [%] ET-1: 144%
[1]; [16]
  logEC50 ET-1: 8.8
  Emax [%] ET-1: 166%
[1]; patient 13, pre-treatment then PE vesicles (extrapolated)
  logEC50 ET-1: 5.7
[1]; [17]
  effect on contraction in the presence of control vesicles (ET-1): did not appear to have any reducing effect
[1]; [4]
  reduction of contraction induced with ET-1: 15%
[1]; [5]
  Emax [%] ET-1: 147%
[1]; [7]
  logEC50 ET-1: 9.4
  Emax [%] ET-1: 197%
[1]; [8]
  logEC50 ET-1: 9.9
[1]; [9]
  effect on ET-1 mediated contraction with control P vesicles: increased contraction
[2]; Example 3
  contractile effect of AngII in the presence of PE: affect the contractile response of AngII
[2]; [10]
  AUC: 170.5
  AUC/AUC (PE) %: 72.7%
  % contractile change: −27.3%
[2]; [11]
  AngII induced contraction: significantly decreased
[2]; [12]
  AUC: 299.6
  AUC/AUC (PE) %: 69.3%
  % contractile change: −31%
[2]; patient 13, 10 μg/ml before PE-vesicles, vs PE vesicles only
  reduction of maximum contraction induced by angiotensin II: 23%
[2]; [14]
  Emax [%] AngII: 75%
[2]; [16]
  logEC50 AngII: 10.8
[2]; [17]
  effect on contraction in the presence of control vesicles (AngII): did not appear to have any reducing effect
[2]; [15]
  Emax [%] AngII: 69%
[2]; patient 13, pre-treatment then P (non-PE) vesicles
  Emax [%] AngII: 103%
[2]; [13]
  reduction of contraction induced with angiotensin II: 14%
[2]; [5]
  Emax [%] AngII: 109%
[2]; [7]
  logEC50 AngII: 10.0
  Emax [%] AngII: 135%
[2]; [8]
  logEC50 AngII: 10.0
[2]; [9]
  effect on Ang II mediated contraction with control P vesicles: increased contraction
[3]; [15]
  Endothelial function [%]: 96%
[3]; patient 13, pre-treatment then PE vesicles
  Endothelial function [%]: 119.95%
[3]; patient 13, pre-treatment then non-preeclampsia (P) vesicles
  Endothelial function [%]: 69.11%
[3]; [7]
  Endothelial function [%]: 22%
[3]; [8]
  Endothelial function [%]: 1%

From patent US12502403B2, “Tafoxiparin for the treatment of preeclampsia” (DILAFOR AB, priority 2020, dated 2025)
